Results from PubChem BioAssay (NCI).
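Where inhibition never reached the appropriate level, the endpoint shown equals the highest concentration tested. Otherwise, values were interpolated linearly from a five-concentration, 48-hour dose response in 96-well plates. TGI marks complete inhibition of growth.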

Columns and labels:
Test in all cases: NCI tumour cell line growth inhibition, 48 h
786-0 renal = test system: 786-0 renal
A498 renal = test system: A498 renal
A549 NSCLC = test system: A549 NSCLC
ACHN renal = test system: ACHN renal
BT-549 breast = test system: BT-549 breast
CAKI-1 renal = test system: CAKI-1 renal
CCRF-CEM leukemia = test system: CCRF-CEM leukemia
COLO 205 colon = test system: COLO 205 colon
DU-145 prostate = test system: DU-145 prostate
EKVX NSCLC = test system: EKVX NSCLC
HCC-2998 colon = test system: HCC-2998 colon
HCT-116 colon = test system: HCT-116 colon
HCT-15 colon = test system: HCT-15 colon
HL-60(TB) leukemia = test system: HL-60(TB) leukemia
HOP-62 NSCLC = test system: HOP-62 NSCLC
HOP-92 NSCLC = test system: HOP-92 NSCLC
HS 578T breast = test system: HS 578T breast
HT29 colon = test system: HT29 colon
IGROV1 ovarian = test system: IGROV1 ovarian
K-562 leukemia = test system: K-562 leukemia
KM12 colon = test system: KM12 colon
LOX IMVI melanoma = test system: LOX IMVI melanoma
M14 melanoma = test system: M14 melanoma
MALME-3M melanoma = test system: MALME-3M melanoma
MCF7 breast = test system: MCF7 breast
MDA-MB-231 breast = test system: MDA-MB-231 breast
MDA-MB-435 = test system: MDA-MB-435
MDA-N = test system: MDA-N
MOLT-4 leukemia = test system: MOLT-4 leukemia
NCI-H226 lung = test system: NCI-H226 lung
NCI-H23 lung = test system: NCI-H23 lung
NCI-H460 lung = test system: NCI-H460 lung
NCI-H522 lung = test system: NCI-H522 lung
NCI/ADR-RES ovarian = test system: NCI/ADR-RES ovarian
OVCAR-3 ovarian = test system: OVCAR-3 ovarian
OVCAR-4 ovarian = test system: OVCAR-4 ovarian
OVCAR-5 ovarian = test system: OVCAR-5 ovarian
OVCAR-8 ovarian = test system: OVCAR-8 ovarian
PC-3 prostate = test system: PC-3 prostate
RPMI-8226 leukemia = test system: RPMI-8226 leukemia
RXF 393 renal = test system: RXF 393 renal
SF-268 CNS = test system: SF-268 CNS
SF-295 CNS = test system: SF-295 CNS
SF-539 CNS = test system: SF-539 CNS
SK-MEL-2 melanoma = test system: SK-MEL-2 melanoma
SK-MEL-28 melanoma = test system: SK-MEL-28 melanoma
SK-MEL-5 melanoma = test system: SK-MEL-5 melanoma
SK-OV-3 ovarian = test system: SK-OV-3 ovarian
SN12C renal = test system: SN12C renal
SNB-19 CNS = test system: SNB-19 CNS
SNB-75 CNS = test system: SNB-75 CNS
SR leukemia = test system: SR leukemia
SW-620 colon = test system: SW-620 colon
T-47D breast = test system: T-47D breast
TK-10 renal = test system: TK-10 renal
U251 CNS = test system: U251 CNS
UACC-257 melanoma = test system: UACC-257 melanoma
UACC-62 melanoma = test system: UACC-62 melanoma
UO-31 renal = test system: UO-31 renal

Question: `CN=C(N)/N=C(\N)Nc1cc2ccccc2c2ccccc12` was tested. Which TGI (786-0 renal) did it give?
Answer: 25.5 µM

Question: What about the TGI (A498 renal) of the same molecule?
Answer: 23.3 µM

Question: And the TGI (A549 NSCLC)?
Answer: 30.8 µM

Question: What about the TGI (ACHN renal) of the same molecule?
Answer: 26.3 µM

Question: What about the TGI (BT-549 breast) of the same molecule?
Answer: 29.3 µM

Question: What about the TGI (CAKI-1 renal) of the same molecule?
Answer: 31.2 µM

Question: And the TGI (CCRF-CEM leukemia)?
Answer: 26.1 µM

Question: What about the TGI (COLO 205 colon) of the same molecule?
Answer: 28.2 µM

Question: And the TGI (DU-145 prostate)?
Answer: 32.3 µM

Question: What about the TGI (EKVX NSCLC) of the same molecule?
Answer: 31.8 µM

Question: What about the TGI (HCC-2998 colon) of the same molecule?
Answer: 6.78 µM

Question: And the TGI (HCT-116 colon)?
Answer: 26 µM

Question: What about the TGI (HCT-15 colon) of the same molecule?
Answer: 33.4 µM

Question: What about the TGI (HL-60(TB) leukemia) of the same molecule?
Answer: 19.8 µM

Question: What about the TGI (HOP-62 NSCLC) of the same molecule?
Answer: 33.4 µM

Question: What about the TGI (HOP-92 NSCLC) of the same molecule?
Answer: 40.8 µM

Question: What about the TGI (HS 578T breast) of the same molecule?
Answer: 42.3 µM

Question: And the TGI (HT29 colon)?
Answer: 32.9 µM

Question: And the TGI (IGROV1 ovarian)?
Answer: 35.5 µM

Question: And the TGI (K-562 leukemia)?
Answer: 44.5 µM

Question: What about the TGI (KM12 colon) of the same molecule?
Answer: 34.6 µM

Question: What about the TGI (LOX IMVI melanoma) of the same molecule?
Answer: 29.7 µM

Question: What about the TGI (M14 melanoma) of the same molecule?
Answer: 33.4 µM

Question: What about the TGI (MALME-3M melanoma) of the same molecule?
Answer: 29.3 µM

Question: What about the TGI (MCF7 breast) of the same molecule?
Answer: 26.1 µM

Question: What about the TGI (MDA-MB-231 breast) of the same molecule?
Answer: 26.2 µM

Question: And the TGI (MDA-MB-435)?
Answer: 32.4 µM

Question: And the TGI (MDA-N)?
Answer: 27.8 µM

Question: What about the TGI (MOLT-4 leukemia) of the same molecule?
Answer: 34 µM

Question: And the TGI (NCI-H226 lung)?
Answer: 37.4 µM

Question: And the TGI (NCI-H23 lung)?
Answer: 33.2 µM

Question: And the TGI (NCI-H460 lung)?
Answer: 24.4 µM

Question: And the TGI (NCI-H522 lung)?
Answer: 26.2 µM

Question: What about the TGI (NCI/ADR-RES ovarian) of the same molecule?
Answer: 49.9 µM

Question: What about the TGI (OVCAR-3 ovarian) of the same molecule?
Answer: 35.8 µM

Question: What about the TGI (OVCAR-4 ovarian) of the same molecule?
Answer: 33.6 µM

Question: What about the TGI (OVCAR-5 ovarian) of the same molecule?
Answer: 33 µM

Question: What about the TGI (OVCAR-8 ovarian) of the same molecule?
Answer: 33.8 µM

Question: What about the TGI (PC-3 prostate) of the same molecule?
Answer: 29.5 µM

Question: And the TGI (RPMI-8226 leukemia)?
Answer: 43.3 µM

Question: And the TGI (RXF 393 renal)?
Answer: 31.9 µM

Question: And the TGI (SF-268 CNS)?
Answer: 27.5 µM

Question: And the TGI (SF-295 CNS)?
Answer: 32.5 µM

Question: And the TGI (SF-539 CNS)?
Answer: 29.4 µM

Question: What about the TGI (SK-MEL-2 melanoma) of the same molecule?
Answer: 32.3 µM

Question: What about the TGI (SK-MEL-28 melanoma) of the same molecule?
Answer: 34.1 µM

Question: What about the TGI (SK-MEL-5 melanoma) of the same molecule?
Answer: 30.6 µM

Question: What about the TGI (SK-OV-3 ovarian) of the same molecule?
Answer: 32.9 µM

Question: What about the TGI (SN12C renal) of the same molecule?
Answer: 27.2 µM

Question: And the TGI (SNB-19 CNS)?
Answer: 30.9 µM

Question: What about the TGI (SNB-75 CNS) of the same molecule?
Answer: 27.6 µM

Question: What about the TGI (SR leukemia) of the same molecule?
Answer: 47.8 µM

Question: What about the TGI (SW-620 colon) of the same molecule?
Answer: 34 µM

Question: What about the TGI (T-47D breast) of the same molecule?
Answer: 40.5 µM

Question: What about the TGI (TK-10 renal) of the same molecule?
Answer: 26 µM

Question: What about the TGI (U251 CNS) of the same molecule?
Answer: 28.5 µM

Question: What about the TGI (UACC-257 melanoma) of the same molecule?
Answer: 30.9 µM

Question: What about the TGI (UACC-62 melanoma) of the same molecule?
Answer: 28.2 µM

Question: And the TGI (UO-31 renal)?
Answer: 27.4 µM

Question: `O=C1N=NC(=O)N1c1cc(C(F)(F)F)cc(C(F)(F)F)c1` was tested. Which TGI (786-0 renal) did it give?
Answer: 17 µM

Question: What about the TGI (A498 renal) of the same molecule?
Answer: 25.4 µM

Question: What about the TGI (A549 NSCLC) of the same molecule?
Answer: 12 µM

Question: What about the TGI (ACHN renal) of the same molecule?
Answer: 14.2 µM

Question: What about the TGI (BT-549 breast) of the same molecule?
Answer: 12.9 µM

Question: What about the TGI (CAKI-1 renal) of the same molecule?
Answer: 10.2 µM

Question: What about the TGI (CCRF-CEM leukemia) of the same molecule?
Answer: > 45 µM

Question: What about the TGI (COLO 205 colon) of the same molecule?
Answer: 3.35 µM

Question: And the TGI (DU-145 prostate)?
Answer: > 40 µM

Question: And the TGI (EKVX NSCLC)?
Answer: 33.2 µM

Question: What about the TGI (HCC-2998 colon) of the same molecule?
Answer: 14.7 µM

Question: What about the TGI (HCT-116 colon) of the same molecule?
Answer: 12.2 µM

Question: What about the TGI (HCT-15 colon) of the same molecule?
Answer: 12 µM

Question: And the TGI (HL-60(TB) leukemia)?
Answer: > 100 µM

Question: And the TGI (HOP-62 NSCLC)?
Answer: 15 µM

Question: What about the TGI (HOP-92 NSCLC) of the same molecule?
Answer: 8.25 µM

Question: And the TGI (HS 578T breast)?
Answer: 20.8 µM

Question: What about the TGI (HT29 colon) of the same molecule?
Answer: 8.1 µM

Question: What about the TGI (IGROV1 ovarian) of the same molecule?
Answer: 14.8 µM

Question: What about the TGI (K-562 leukemia) of the same molecule?
Answer: 32.9 µM

Question: And the TGI (KM12 colon)?
Answer: 18.2 µM

Question: What about the TGI (LOX IMVI melanoma) of the same molecule?
Answer: 11.7 µM

Question: And the TGI (M14 melanoma)?
Answer: 24.3 µM

Question: What about the TGI (MALME-3M melanoma) of the same molecule?
Answer: 14.2 µM

Question: And the TGI (MCF7 breast)?
Answer: > 32.4 µM

Question: What about the TGI (MDA-MB-231 breast) of the same molecule?
Answer: 6.55 µM

Question: And the TGI (MDA-MB-435)?
Answer: 33.2 µM

Question: What about the TGI (MDA-N) of the same molecule?
Answer: 20.4 µM

Question: And the TGI (MOLT-4 leukemia)?
Answer: 40.3 µM

Question: What about the TGI (NCI-H226 lung) of the same molecule?
Answer: 12.4 µM

Question: And the TGI (NCI-H23 lung)?
Answer: 6.48 µM

Question: And the TGI (NCI-H460 lung)?
Answer: 13.4 µM

Question: And the TGI (NCI-H522 lung)?
Answer: 9.13 µM

Question: What about the TGI (NCI/ADR-RES ovarian) of the same molecule?
Answer: 11.5 µM

Question: And the TGI (OVCAR-3 ovarian)?
Answer: > 23 µM

Question: And the TGI (OVCAR-4 ovarian)?
Answer: 27.5 µM

Question: And the TGI (OVCAR-5 ovarian)?
Answer: 30.5 µM

Question: What about the TGI (OVCAR-8 ovarian) of the same molecule?
Answer: 13.7 µM

Question: What about the TGI (PC-3 prostate) of the same molecule?
Answer: 12.8 µM

Question: And the TGI (RPMI-8226 leukemia)?
Answer: 22.1 µM

Question: And the TGI (RXF 393 renal)?
Answer: 12.4 µM

Question: What about the TGI (SF-268 CNS) of the same molecule?
Answer: 17.3 µM

Question: What about the TGI (SF-295 CNS) of the same molecule?
Answer: 9.49 µM

Question: And the TGI (SF-539 CNS)?
Answer: 20.7 µM

Question: And the TGI (SK-MEL-2 melanoma)?
Answer: 5.57 µM

Question: What about the TGI (SK-MEL-28 melanoma) of the same molecule?
Answer: 44.3 µM

Question: What about the TGI (SK-MEL-5 melanoma) of the same molecule?
Answer: 7.62 µM

Question: And the TGI (SK-OV-3 ovarian)?
Answer: 16.2 µM

Question: And the TGI (SN12C renal)?
Answer: 13.8 µM

Question: And the TGI (SNB-19 CNS)?
Answer: > 40.8 µM

Question: What about the TGI (SNB-75 CNS) of the same molecule?
Answer: 11.7 µM

Question: And the TGI (SR leukemia)?
Answer: > 53.1 µM

Question: And the TGI (SW-620 colon)?
Answer: > 45.6 µM

Question: And the TGI (T-47D breast)?
Answer: > 30.2 µM

Question: And the TGI (TK-10 renal)?
Answer: > 42.8 µM

Question: What about the TGI (U251 CNS) of the same molecule?
Answer: 12.4 µM

Question: What about the TGI (UACC-257 melanoma) of the same molecule?
Answer: 12.2 µM

Question: And the TGI (UACC-62 melanoma)?
Answer: 18.3 µM

Question: What about the TGI (UO-31 renal) of the same molecule?
Answer: 7.89 µM
